From publication PMC7587356, “High-Throughput Screening for Inhibitors of the SARS-CoV-2 Protease Using a FRET-Biosensor” (Molecules, 2020)
Structures can show the parent of a compound that is named as a salt. Where two headings read alike, the source gives them in different places.

Target: SARS-CoV-2 3CLpro (Severe acute respiratory syndrome coronavirus 2, UniProt P0DTD1)
Experiment: biochemical
Format: biochemical
Set-up: Replicate_1 / Replicate_2 / mean / mean (LOPAC_screen_w_protease): unit not given here
Conditions: for inhibition at 5 µM: 4 h
[1] = sheet LOPAC_screen_w_protease, LOPAC1280 at 5 µM, mean of two replicates, read-out: mean
[2] = sheet LOPAC_screen_w_protease, LOPAC1280 at 5 µM, replicate 1, read-out: Replicate_1
[3] = sheet LOPAC_screen_w_protease, LOPAC1280 at 5 µM, replicate 2, read-out: Replicate_2
[4] = sheet LOPAC_screen_w_protease, primary screen with protease, 5 µM, mean of two replicates, read-out: mean
[5] = sheet LOPAC_screen_w_protease, primary screen with protease, 5 µM, replicate 1, read-out: Replicate_1
[6] = sheet LOPAC_screen_w_protease, primary screen with protease, 5 µM, replicate 2, read-out: Replicate_2
[7] = sheet LOPAC_screen_w_protease, primary screen with protease, compound at 5 µM, mean of two replicates, read-out: mean
[8] = sheet LOPAC_screen_w_protease, primary screen with protease, compound at 5 µM, replicate 1, read-out: Replicate_1
[9] = sheet LOPAC_screen_w_protease, primary screen with protease, compound at 5 µM, replicate 2, read-out: Replicate_2
[10] = LOPAC1280 primary screen with protease, 5 µM compound, replicate 1, read-out: Replicate_1 (LOPAC_screen_w_protease)
[11] = LOPAC1280 primary screen with protease, 5 µM compound, replicate 2, read-out: Replicate_2 (LOPAC_screen_w_protease)
[12] = LOPAC1280 primary screen with protease, 5 µM compound, mean of the two replicates
[13] = LOPAC1280 primary screen with protease, 5 µM compound, mean of two replicates
[14] = sheet LOPAC_screen_w_protease, LOPAC1280 primary screen at 5 µM, with protease, mean of the two replicates, read-out: mean
[15] = sheet LOPAC_screen_w_protease, LOPAC1280 primary screen at 5 µM, with protease, replicate 1, read-out: Replicate_1
[16] = sheet LOPAC_screen_w_protease, LOPAC1280 primary screen at 5 µM, with protease, replicate 2, read-out: Replicate_2
[17] = read-out: Replicate_1 (LOPAC_screen_w_protease)
[18] = read-out: Replicate_2 (LOPAC_screen_w_protease)
[19] = sheet LOPAC_screen_w_protease, primary screen with protease, 5 µM, mean of two replicates
[20] = sheet LOPAC_screen_w_protease, primary screen with protease, 5 µM, replicate 1
[21] = sheet LOPAC_screen_w_protease, primary screen with protease, 5 µM, replicate 2
[22] = sheet LOPAC_screen_w_protease, primary screen of LOPAC1280 at 5 µM with protease, mean of the two replicates
[23] = sheet LOPAC_screen_w_protease, primary screen of LOPAC1280 at 5 µM with protease, replicate 1
[24] = sheet LOPAC_screen_w_protease, primary screen of LOPAC1280 at 5 µM with protease, replicate 2
[25] = sheet LOPAC_screen_w_protease, primary screen with protease, mean of two replicates
[26] = sheet LOPAC_screen_w_protease, primary screen with protease, replicate 1
[27] = sheet LOPAC_screen_w_protease, primary screen with protease, replicate 2
[28] = sheet LOPAC_screen_w_protease, primary screen with protease, compound at 5 µM, mean of two replicates
[29] = sheet LOPAC_screen_w_protease, primary screen with protease, compound at 5 µM, replicate 1
[30] = sheet LOPAC_screen_w_protease, primary screen with protease, compound at 5 µM, replicate 2
[31] = LOPAC1280 primary screen with protease, 5 µM compound, replicate 1
[32] = LOPAC1280 primary screen with protease, 5 µM compound, replicate 2

CCN(CC)CCNC(=O)c1cc(S(C)(=O)=O)ccc1OC [Tiapride hydrochloride]
inhibition at 5 µM [1]: 1.21%
inhibition at 5 µM [2]: 1.45%
inhibition at 5 µM [3]: 0.964%

Cc1ccc(S(=O)(=O)NC(=O)NN2CCCCCC2)cc1 [Tolazamide]
inhibition at 5 µM [4]: -0.908%
inhibition at 5 µM [5]: -0.0393%
inhibition at 5 µM [6]: -1.78%

CCCCNc1c(C(=O)OCC)c(C)nc2c1cnn2CC [Tracazolate]
inhibition at 5 µM [4]: -0.116%
inhibition at 5 µM [5]: 0.109%
inhibition at 5 µM [6]: -0.341%

COc1ccc(/C=C/C(=O)Nc2ccccc2C(=O)O)cc1OC [Tranilast]
inhibition at 5 µM (read-out: Replicate_1): 0.566%
inhibition at 5 µM (read-out: Replicate_2): -2.13%
inhibition at 5 µM (read-out: mean): -0.784%

N[C@@H]1C[C@H]1c1ccccc1 [Tranylcypromine hydrochloride]
Replicate_1: 0.4955
Replicate_2: 0.8775
mean: 0.6865

O=c1n(CCCN2CCN(c3cccc(Cl)c3)CC2)nc2ccccn12 [Trazodone hydrochloride]
inhibition at 5 µM [7]: 2.86%
inhibition at 5 µM [8]: 3.03%
inhibition at 5 µM [9]: 2.69%

COc1cc2c(cc1OC)-c1c/c(=N\c3c(C)cc(C)cc3C)n(C)c(=O)n1CC2 [Trequinsin hydrochloride]
inhibition at 5 µM [10]: 1.97%
inhibition at 5 µM [11]: 2%
mean (LOPAC_screen_w_protease) [12]: 1.986

Nc1nc(N)c2nc(-c3ccccc3)c(N)nc2n1 [Triamterene]
inhibition at 5 µM [4]: -0.222%
inhibition at 5 µM [5]: 2.19%
inhibition at 5 µM [6]: -2.63%

CN1CCN(CCCN2c3ccccc3Sc3ccc(C(F)(F)F)cc32)CC1 [Trifluoperazine dihydrochloride]
inhibition at 5 µM [4]: 0.187%
inhibition at 5 µM [5]: 0.0814%
inhibition at 5 µM [6]: 0.293%

O=C(CCCN1CCC(O)(c2cccc(C(F)(F)F)c2)CC1)c1ccc(F)cc1 [Trifluperidol hydrochloride]
inhibition at 5 µM [10]: -0.00744%
inhibition at 5 µM [11]: 3.06%
mean (LOPAC_screen_w_protease) [13]: 1.525

CN(C)CCCN1c2ccccc2Sc2ccc(C(F)(F)F)cc21 [Triflupromazine hydrochloride]
inhibition at 5 µM [14]: 0.692%
inhibition at 5 µM [15]: 1.65%
inhibition at 5 µM [16]: -0.271%

OC(CCN1CCCCC1)(c1ccccc1)C1CCCCC1 (centres unmarked) [Trihexyphenidyl hydrochloride]
inhibition at 5 µM [17]: 1.61%
inhibition at 5 µM [18]: 1.86%

COc1cc(Cc2cnc(N)nc2N)cc(OC)c1OC [Trimethoprim]
inhibition at 5 µM (read-out: Replicate_1): -0.343%
inhibition at 5 µM (read-out: Replicate_2): -3.24%
inhibition at 5 µM (read-out: mean): -1.79%

CC(CN(C)C)CN1c2ccccc2CCc2ccccc21 (centres unmarked) [Trimipramine maleate]
inhibition at 5 µM (sheet LOPAC_screen_w_protease, primary screen with protease, mean of two replicates, read-out: mean): 2.36%
inhibition at 5 µM (sheet LOPAC_screen_w_protease, primary screen with protease, replicate 1, read-out: Replicate_1): 3.17%
inhibition at 5 µM (sheet LOPAC_screen_w_protease, primary screen with protease, replicate 2, read-out: Replicate_2): 1.55%

Cc1ccc(/C(=C\CN2CCCC2)c2ccccn2)cc1.Cl [Triprolidine hydrochloride]
mean [19]: 0.01953
Replicate_1 [20]: 0.1702
Replicate_2 [21]: -0.1311

NCCc1c[nH]c2ccccc12 [Tryptamine hydrochloride]
inhibition at 5 µM [14]: 0.461%
inhibition at 5 µM [15]: 0.957%
inhibition at 5 µM [16]: -0.0349%

CC(C)(C)NCC(O)c1ccccc1Cl (centres unmarked) [Tulobuterol hydrochloride]
inhibition at 5 µM [1]: 0.895%
inhibition at 5 µM [2]: 2.46%
inhibition at 5 µM [3]: -0.673%

N#CC(C#N)=Cc1ccc(O)c(O)c1 [Tyrphostin 23]
inhibition at 5 µM [7]: 3.07%
inhibition at 5 µM [8]: 2.09%
inhibition at 5 µM [9]: 4.04%

N#CC(C#N)=Cc1cc(O)c(O)c(O)c1 [Tyrphostin 25]
inhibition at 5 µM (sheet LOPAC_screen_w_protease, primary screen at 5 µM, mean of two replicates, read-out: mean (LOPAC screen with protease)): 8.52%
inhibition at 5 µM (sheet LOPAC_screen_w_protease, primary screen at 5 µM, replicate 1, read-out: Replicate_1 (LOPAC screen with protease)): 10.5%
inhibition at 5 µM (sheet LOPAC_screen_w_protease, primary screen at 5 µM, replicate 2, read-out: Replicate_2 (LOPAC screen with protease)): 6.57%

CC(C)(C)c1cc(C=C(C#N)C#N)cc(C(C)(C)C)c1O [Tyrphostin A9]
mean (LOPAC_screen_w_protease): 2.02
inhibition at 5 µM [17]: 2.73%
inhibition at 5 µM [18]: 1.31%

COc1cc(C=C(C#N)C#N)cc(O)c1O [Tyrphostin AG 34]
mean [22]: 3.625
Replicate_1 [23]: 3.8503
Replicate_2 [24]: 3.4006

N#CC(C#N)=C(N)/C(C#N)=C/c1ccc(O)cc1 [Tyrphostin AG 112]
mean [25]: 2.497
Replicate_1 [26]: 2.949
Replicate_2 [27]: 2.046

N#CC(C#N)=Cc1ccc([N+](=O)[O-])c(O)c1 [Tyrphostin AG 126]
mean [25]: 2.288
Replicate_1 [26]: 2.273
Replicate_2 [27]: 2.303

N#C/C(=C\c1ccc(O)c(O)c1)C(=O)NCc1ccccc1 [Tyrphostin AG 490]
inhibition at 5 µM [7]: 2.61%
inhibition at 5 µM [8]: 3.18%
inhibition at 5 µM [9]: 2.05%

N#C/C(=C\c1ccc(O)c(O)c1)C(=O)Nc1ccccc1 [Tyrphostin AG 494]
inhibition at 5 µM (sheet LOPAC_screen_w_protease, primary screen of LOPAC1280 at 5 µM with protease, mean of the two replicates, read-out: mean): 4.07%
inhibition at 5 µM (sheet LOPAC_screen_w_protease, primary screen of LOPAC1280 at 5 µM with protease, replicate 1, read-out: Replicate_1): 4.44%
inhibition at 5 µM (sheet LOPAC_screen_w_protease, primary screen of LOPAC1280 at 5 µM with protease, replicate 2, read-out: Replicate_2): 3.69%

C[C@@H](NC(=O)/C(C#N)=C/c1ccc(O)c(O)c1)c1ccccc1 [Tyrphostin AG 527]
mean [28]: 2.942
Replicate_1 [29]: 4.113
Replicate_2 [30]: 1.771

N#C/C(=C\c1ccc(O)c(O)c1)C(=O)N1CCc2ccccc21 [Tyrphostin AG 528]
mean [22]: 3.92
Replicate_1 [23]: 3.707
Replicate_2 [24]: 4.133

N#C/C(=C\c1ccc(O)c(O)c1)C(=O)NCCCNC(=O)/C(C#N)=C/c1ccc(O)c(O)c1 [Tyrphostin AG 537]
mean (LOPAC_screen_w_protease) [13]: 1.443
Replicate_1 (LOPAC_screen_w_protease) [31]: 1.008
Replicate_2 (LOPAC_screen_w_protease) [32]: 1.878

N#C/C(=C\c1ccc(O)c(O)c1)C(=O)c1ccc(O)c(O)c1 [Tyrphostin AG 538]
mean (LOPAC_screen_w_protease) [13]: 1.741
Replicate_1 (LOPAC_screen_w_protease) [31]: 1.926
Replicate_2 (LOPAC_screen_w_protease) [32]: 1.555

N#C/C(=C\c1ccc(O)c(O)c1)C(=O)NCCCc1ccccc1 [Tyrphostin AG 555]
mean [22]: 3.848
Replicate_1 [23]: 4.708
Replicate_2 [24]: 2.988

N#CC(=Cc1ccc(O)c(O)c1)C(=O)NCCc1ccccc1 [Tyrphostin AG 698]
mean [28]: 2.9723
Replicate_1 [29]: 3.137
Replicate_2 [30]: 2.808

N#CC(=Cc1c[nH]c2ccccc12)C(=O)c1ccc(O)c(O)c1 [Tyrphostin AG 808]
mean (LOPAC_screen_w_protease) [12]: 1.999
Replicate_1 (LOPAC_screen_w_protease) [31]: 2.979
Replicate_2 (LOPAC_screen_w_protease) [32]: 1.0189

CC(C)(C)c1cc(/C=C(\C#N)C(N)=S)cc(C(C)(C)C)c1O [Tyrphostin AG 879]
inhibition at 5 µM (sheet LOPAC_screen_w_protease, LOPAC1280 primary screen with protease, 5 µM compound, mean of the two replicates, read-out: mean): 5.5%
inhibition at 5 µM (sheet LOPAC_screen_w_protease, LOPAC1280 primary screen with protease, 5 µM compound, replicate 1, read-out: Replicate_1): 5.93%
inhibition at 5 µM (sheet LOPAC_screen_w_protease, LOPAC1280 primary screen with protease, 5 µM compound, replicate 2, read-out: Replicate_2): 5.07%

COc1cc2ncnc(Nc3cccc(Cl)c3)c2cc1OC [Tyrphostin AG 1478]
inhibition at 5 µM [1]: 1.16%
inhibition at 5 µM [2]: 1.39%
inhibition at 5 µM [3]: 0.935%

N#CC(=C(/N)Sc1ccccc1N)/C(C#N)=C(/N)Sc1ccccc1N [U0126]
mean [28]: 2.655
Replicate_1 [29]: 2.394
Replicate_2 [30]: 2.916

C[C@]12C=CC(=O)C=C1CC[C@@H]1C2=CC[C@]2(C)[C@@H](C(=O)CN3CCN(c4cc(N5CCCC5)nc(N5CCCC5)n4)CC3)CC[C@@H]12.O=C(O)/C=C\C(=O)O [U-74389G maleate]
mean [19]: -0.1973
Replicate_1 [20]: -0.4551
Replicate_2 [21]: 0.0606
